Experimental data reported in patent US20240343757A1, “PROCESS FOR THE PREPARATION OF BUDESONIDE 21-PHOSPHATE” (GENETIC S.P.A., priority 2021, published 2024).

Columns and labels:
Solubility in water = type: physicochemical
Text: 55, no. 1, pp. 578-582] at physiological pH in the intestinal region.
For this reason, hydroalcoholic solutions are usually prepared dissolving an adequate amount of active substance in solubilizers such as water-soluble alcohols. However, the so prepared solutions have low stability because large amounts of budesonide are decomposed within a short time. Moreover, budesonide formulations have been prepared until now in the form of aqueous suspensions in which the solid phase tends in time to deposit onto the bottom of the container, thus requiring chemical additives or vigorous stirring. These are the reasons that make budesonide not suitable to be delivered by an electric nebulizer.
Budesonide 21-phosphate disodium salt has a much higher water solubility than Budesonide and Budesonide 21-phosphate.

[1] = Stability in aqueous solution at the concentration of use, room temperature; type: physicochemical; conditions: concentration of use 0.25 mg ml-4.0 mg ml
Protocol: At the concentration of use (0.25 mg ml-4.0 mg ml), it is rapidly soluble and remains stable at room temperature for long periods of time (12 months) without yellowing or precipitating.

[2] = ICH stability testing of budesonide 21-phosphate disodium salt (drug substance); type: physicochemical; conditions: for assay content by HPLC: specification 95.0-105.0%; for unknown impurities: specification ≤0.1%; for known impurities: specification ≤0.2%
Protocol: Purity was assessed through the HPLC method of the European Pharmacopoeia 1075-Budesonide-related substance. […]

[3] = background statement; cited from earlier work
[4] = background statement; cited from earlier work; remark: listed apart in the source
[5] = 40° C. and 75% RH (accelerated), Time 0
[6] = 40° C. and 75% RH (accelerated), Time 3 m
[7] = 40° C. and 75% RH (accelerated), Time 6 m

Budesonide 21-phosphate disodium salt
water solubility (Solubility in water): 110 mg/mL | water solubility class (Solubility in water; freely soluble = 100-1000 mg/mL): freely soluble in water | period stable in solution without yellowing or precipitating [1]: 12 months | assay content by HPLC ([2]; 25° C. and 60% RH, Time 0): 98.22% | unknown impurities ([2]; 25° C. and 60% RH, Time 0): 0.05% | known impurities ([2]; 25° C. and 60% RH, Time 0): 0.14% | assay content by HPLC ([2]; 25° C. and 60% RH, Time 3 m): 98.10% | unknown impurities ([2]; 25° C. and 60% RH, Time 3 m): 0.05% | known impurities ([2]; 25° C. and 60% RH, Time 3 m): 0.14% | assay content by HPLC ([2]; 25° C. and 60% RH, Time 6 m): 98.08% | unknown impurities ([2]; 25° C. and 60% RH, Time 6 m): 0.05% | known impurities ([2]; 25° C. and 60% RH, Time 6 m): 0.14% | assay content by HPLC ([2]; 25° C. and 60% RH, Time 9 m): 97.85% | unknown impurities ([2]; 25° C. and 60% RH, Time 9 m): 0.08% | known impurities ([2]; 25° C. and 60% RH, Time 9 m): 0.15% | assay content by HPLC ([2]; 25° C. and 60% RH, Time 12 m): 97.45% | unknown impurities ([2]; 25° C. and 60% RH, Time 12 m): 0.08% | known impurities ([2]; 25° C. and 60% RH, Time 12 m): 0.15% | assay content by HPLC ([2]; 30° C. and 65% RH, Time 0): 98.22% | unknown impurities ([2]; 30° C. and 65% RH, Time 0): 0.05% | known impurities ([2]; 30° C. and 65% RH, Time 0): 0.14% | assay content by HPLC ([2]; 30° C. and 65% RH, Time 3 m): 97.50% | unknown impurities ([2]; 30° C. and 65% RH, Time 3 m): 0.15% | known impurities ([2]; 30° C. and 65% RH, Time 3 m): 0.20% | assay content by HPLC ([2]; 30° C. and 65% RH, Time 6 m): 97.28% | unknown impurities ([2]; 30° C. and 65% RH, Time 6 m): 0.15% | known impurities ([2]; 30° C. and 65% RH, Time 6 m): 0.25% | assay content by HPLC ([2]; 30° C. and 65% RH, Time 9 m): 97.00% | unknown impurities ([2]; 30° C. and 65% RH, Time 9 m): 0.40% | known impurities ([2]; 30° C. and 65% RH, Time 9 m): 0.25% | assay content by HPLC ([2]; 30° C. and 65% RH, Time 12 m): 94.55% | unknown impurities ([2]; 30° C. and 65% RH, Time 12 m): 0.40% | known impurities ([2]; 30° C. and 65% RH, Time 12 m): 0.30% | assay content by HPLC [2, 5]: 98.22% | unknown impurities [2, 5]: <0.05% | known impurities [2, 5]: 0.14% | assay content by HPLC [2, 6]: 96.50% | unknown impurities [2, 6]: 2.45% | known impurities [2, 6]: 0.30% | assay content by HPLC [2, 7]: 93.28% | unknown impurities [2, 7]: 2.80% | known impurities [2, 7]: 0.45%

CCCC1OC2CC3C4CCC5=CC(=O)C=CC5(C)C4C(O)CC3(C)C2(C(=O)CO)O1 (stereo not drawn) [Budesonide, 1β,21-dihydroxy-16α, 17α-(butylidenebis(oxy)) pregna-1,4-diene-3,20-dione]
solubility in water [3]: virtually insoluble in water | solubility in alcohols [4]: readily soluble in alcohols
